The values that follow are results of earlier work, collected in patent US20050090518A1 (Nastech Pharmaceutical Company Inc., priority 2003, published 2005).

For the series the following is noted: intranasal administration.

On to `CN1CCc2cccc3c2[C@H]1Cc1ccc(O)c(O)c1-3` [Apomorphine], for which the “abolition of "off state" events” value is 95%, the duration of efficacy result is given as “less than one” and the onset of action was 10 min.
